The source of these data is patent US20090311217A1, “3-SUBSTITUTED-1H-INDOLE COMPOUNDS, THEIR USE AS MTOR KINASE AND PI3 KINASE INHIBITORS, AND THEIR SYNTHESES” (priority 2008, published 2009).

The IC50 is the concentration that inhibits the measured activity by half.

Format in all cases: biochemical
One assay concerns the target PI3K-alpha (Homo sapiens, UniProt P42336). In words: PI3K-alpha fluorescence polarization assay. As to conditions: read-out: PI3Kα Avg. IC50.
A further assay deals with PI3K-beta (Homo sapiens, UniProt P42338). The assay can be described thus: PI3K-beta fluorescence polarization assay. As to conditions: read-out: PI3Kβ Avg. IC50. The protocol:
PI3K-Alpha, PI3K-Beta, PI3K-Gamma, and PI3K-delta Fluorescence Polarization Assay Protocols
PI3-Kinase reactions were performed in 5 mM HEPES, pH 7, 2.5 mM MgCl2, and 25 μM ATP, with diC8-PI(4,5)P2 (Echelon, Salt Lake City Utah) as substrate. Nunc 384-well black polypropylene fluorescent plates were used for PI3K assays. Reactions were quenched by the addition of EDTA to a final concentration of 10 mM. Final reaction volumes were 10 μl. For evaluation of PI3K inhibitors, 5 ng of enzyme (PI3K-alpha, beta, gamma, or delta) and 2.5 μM of substrate was used per […] reaction volume, and inhibitor concentrations ranged from 100 μM to 20 μM; the final level of DMSO in reactions never exceeded 2%. Reactions were allowed to proceed for one hour at 25° C. After 1 hour, GST-tagged GRP1 (general receptor for phosphoinositides) PH domain fusion protein was added to a final concentration of 100 nM, and BODIPY-TMRI(1,3,4,5)P4 (Echelon) was also added to a final concentration of 5 nM. Final sample volumes were 25 μl with a final DMSO concentration of 0.8%. Assay Plates were read on Perkin-Elmer Envision plate readers with appropriate filters for Tamra [BODIPY-TMRI(1,3,4,5)P4]. Data obtained were used to calculate enzymatic activity and enzyme inhibition by inhibitor compounds.
A general note: In fluorescence polarisation assays a small probe gives low polarisation when free and higher when bound to something large.

A further assay deals with PI3K-gamma (Homo sapiens, UniProt P48736). The assay can be described thus: PI3K-gamma fluorescence polarization assay. To be noted: PI3Kγ Avg. IC50. The procedure, abridged: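 FP displacement read-out: 100 nM GST-GRP1 PH domain plus 5 nM BODIPY-TMR-IP4 added after EDTA stop. Preceding kinase step: 5 ng enzyme, diC8-PI(4,5)P2 2.5 μM, ATP 25 μM, MgCl2 2.5 mM, HEPES 5 mM pH 7, one hour, 25° C.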
Chain of PI3K-gamma (P48736 whole entry, species assumed, the tested form may be a part): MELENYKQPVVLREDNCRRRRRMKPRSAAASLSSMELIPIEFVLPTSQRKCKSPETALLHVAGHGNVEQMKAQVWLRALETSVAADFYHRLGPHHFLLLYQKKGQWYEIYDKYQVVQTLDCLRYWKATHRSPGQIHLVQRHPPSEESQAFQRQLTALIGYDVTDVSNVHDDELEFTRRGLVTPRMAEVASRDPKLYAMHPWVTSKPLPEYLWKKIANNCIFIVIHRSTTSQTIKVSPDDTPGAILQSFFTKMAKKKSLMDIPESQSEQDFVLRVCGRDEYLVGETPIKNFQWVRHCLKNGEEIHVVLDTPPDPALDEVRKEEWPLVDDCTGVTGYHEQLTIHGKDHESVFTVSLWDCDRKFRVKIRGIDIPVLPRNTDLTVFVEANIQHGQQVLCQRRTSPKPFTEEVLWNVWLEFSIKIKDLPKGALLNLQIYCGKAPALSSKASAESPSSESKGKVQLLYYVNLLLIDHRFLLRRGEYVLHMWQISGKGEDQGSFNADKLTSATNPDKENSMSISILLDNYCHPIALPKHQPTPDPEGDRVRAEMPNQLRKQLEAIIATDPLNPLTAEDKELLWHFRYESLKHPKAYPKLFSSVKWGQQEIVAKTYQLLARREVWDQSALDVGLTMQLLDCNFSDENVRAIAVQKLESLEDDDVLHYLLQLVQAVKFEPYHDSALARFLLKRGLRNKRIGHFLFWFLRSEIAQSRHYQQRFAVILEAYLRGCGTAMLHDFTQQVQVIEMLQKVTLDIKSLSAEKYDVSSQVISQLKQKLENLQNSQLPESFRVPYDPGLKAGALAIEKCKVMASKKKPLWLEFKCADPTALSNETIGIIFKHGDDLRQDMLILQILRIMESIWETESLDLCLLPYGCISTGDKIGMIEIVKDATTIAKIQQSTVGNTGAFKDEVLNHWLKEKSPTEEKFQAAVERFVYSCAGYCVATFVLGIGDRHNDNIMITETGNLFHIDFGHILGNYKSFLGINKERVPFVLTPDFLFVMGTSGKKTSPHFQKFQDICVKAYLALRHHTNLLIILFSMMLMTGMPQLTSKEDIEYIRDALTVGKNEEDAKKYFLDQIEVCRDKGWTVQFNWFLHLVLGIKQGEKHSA

The next assay concerns the target PI3K-delta (Homo sapiens, UniProt O00329). The assay can be described thus: PI3K-delta fluorescence polarization assay. As to conditions: read-out: PI3Kδ Avg. IC50.
The next assay addresses T1, human TOR (Homo sapiens, UniProt P42345).
T1 construct: FLAG
In words: mTOR enzyme assay (DELFIA, His6-S6K substrate). As to conditions: read-out: mTOR Kinase Avg. IC50.

Molecules are shown by their SMILES.

Chain of PI3K-alpha (P42336 whole entry, species assumed): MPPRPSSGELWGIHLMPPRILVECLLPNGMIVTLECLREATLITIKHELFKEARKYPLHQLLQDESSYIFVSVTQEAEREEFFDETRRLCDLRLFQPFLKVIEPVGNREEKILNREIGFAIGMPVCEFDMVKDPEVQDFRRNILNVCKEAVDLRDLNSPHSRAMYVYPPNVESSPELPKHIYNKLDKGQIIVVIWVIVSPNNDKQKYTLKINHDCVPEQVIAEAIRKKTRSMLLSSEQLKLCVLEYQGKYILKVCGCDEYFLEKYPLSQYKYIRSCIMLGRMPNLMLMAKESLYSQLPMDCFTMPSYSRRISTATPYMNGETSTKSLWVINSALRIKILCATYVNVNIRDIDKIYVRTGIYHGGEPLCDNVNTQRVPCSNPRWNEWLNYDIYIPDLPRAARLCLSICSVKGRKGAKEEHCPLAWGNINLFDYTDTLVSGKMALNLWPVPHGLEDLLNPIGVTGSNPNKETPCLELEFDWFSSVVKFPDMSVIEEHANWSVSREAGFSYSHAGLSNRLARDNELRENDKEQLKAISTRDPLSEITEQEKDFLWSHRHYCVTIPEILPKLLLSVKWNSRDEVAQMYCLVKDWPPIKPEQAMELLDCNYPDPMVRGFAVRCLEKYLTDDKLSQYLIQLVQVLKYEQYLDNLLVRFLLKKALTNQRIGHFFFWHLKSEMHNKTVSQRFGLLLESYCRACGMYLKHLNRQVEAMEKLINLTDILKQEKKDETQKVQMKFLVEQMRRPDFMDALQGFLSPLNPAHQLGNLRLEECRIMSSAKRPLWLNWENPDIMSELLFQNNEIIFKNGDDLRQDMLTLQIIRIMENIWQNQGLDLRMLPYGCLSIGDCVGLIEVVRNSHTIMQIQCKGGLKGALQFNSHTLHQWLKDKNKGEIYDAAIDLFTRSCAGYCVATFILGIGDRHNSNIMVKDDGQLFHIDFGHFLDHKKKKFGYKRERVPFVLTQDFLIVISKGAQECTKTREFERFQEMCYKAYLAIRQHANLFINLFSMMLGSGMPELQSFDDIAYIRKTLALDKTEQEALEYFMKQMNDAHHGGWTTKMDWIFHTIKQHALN
Chain of PI3K-alpha (P27986 whole entry partner, species assumed): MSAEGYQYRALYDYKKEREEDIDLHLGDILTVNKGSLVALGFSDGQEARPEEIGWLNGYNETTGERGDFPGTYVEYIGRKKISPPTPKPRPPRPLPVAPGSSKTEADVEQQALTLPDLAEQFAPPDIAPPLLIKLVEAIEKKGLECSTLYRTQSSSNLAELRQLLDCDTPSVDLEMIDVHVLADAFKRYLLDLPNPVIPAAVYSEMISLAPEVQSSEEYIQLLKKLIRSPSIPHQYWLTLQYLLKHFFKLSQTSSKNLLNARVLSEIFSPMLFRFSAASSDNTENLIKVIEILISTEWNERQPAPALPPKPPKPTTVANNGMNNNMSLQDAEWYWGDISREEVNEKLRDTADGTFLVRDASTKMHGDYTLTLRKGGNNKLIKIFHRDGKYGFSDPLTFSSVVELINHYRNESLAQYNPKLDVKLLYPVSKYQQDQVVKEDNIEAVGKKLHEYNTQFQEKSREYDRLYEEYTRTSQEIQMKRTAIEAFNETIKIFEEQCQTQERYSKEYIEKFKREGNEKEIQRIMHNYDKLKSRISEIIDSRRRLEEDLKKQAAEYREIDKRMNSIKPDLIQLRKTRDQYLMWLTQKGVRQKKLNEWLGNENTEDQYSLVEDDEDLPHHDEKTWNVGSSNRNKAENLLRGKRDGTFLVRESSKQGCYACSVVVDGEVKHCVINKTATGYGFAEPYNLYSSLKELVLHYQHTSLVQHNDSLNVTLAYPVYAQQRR
Chain of PI3K-beta (P42338 whole entry, species assumed): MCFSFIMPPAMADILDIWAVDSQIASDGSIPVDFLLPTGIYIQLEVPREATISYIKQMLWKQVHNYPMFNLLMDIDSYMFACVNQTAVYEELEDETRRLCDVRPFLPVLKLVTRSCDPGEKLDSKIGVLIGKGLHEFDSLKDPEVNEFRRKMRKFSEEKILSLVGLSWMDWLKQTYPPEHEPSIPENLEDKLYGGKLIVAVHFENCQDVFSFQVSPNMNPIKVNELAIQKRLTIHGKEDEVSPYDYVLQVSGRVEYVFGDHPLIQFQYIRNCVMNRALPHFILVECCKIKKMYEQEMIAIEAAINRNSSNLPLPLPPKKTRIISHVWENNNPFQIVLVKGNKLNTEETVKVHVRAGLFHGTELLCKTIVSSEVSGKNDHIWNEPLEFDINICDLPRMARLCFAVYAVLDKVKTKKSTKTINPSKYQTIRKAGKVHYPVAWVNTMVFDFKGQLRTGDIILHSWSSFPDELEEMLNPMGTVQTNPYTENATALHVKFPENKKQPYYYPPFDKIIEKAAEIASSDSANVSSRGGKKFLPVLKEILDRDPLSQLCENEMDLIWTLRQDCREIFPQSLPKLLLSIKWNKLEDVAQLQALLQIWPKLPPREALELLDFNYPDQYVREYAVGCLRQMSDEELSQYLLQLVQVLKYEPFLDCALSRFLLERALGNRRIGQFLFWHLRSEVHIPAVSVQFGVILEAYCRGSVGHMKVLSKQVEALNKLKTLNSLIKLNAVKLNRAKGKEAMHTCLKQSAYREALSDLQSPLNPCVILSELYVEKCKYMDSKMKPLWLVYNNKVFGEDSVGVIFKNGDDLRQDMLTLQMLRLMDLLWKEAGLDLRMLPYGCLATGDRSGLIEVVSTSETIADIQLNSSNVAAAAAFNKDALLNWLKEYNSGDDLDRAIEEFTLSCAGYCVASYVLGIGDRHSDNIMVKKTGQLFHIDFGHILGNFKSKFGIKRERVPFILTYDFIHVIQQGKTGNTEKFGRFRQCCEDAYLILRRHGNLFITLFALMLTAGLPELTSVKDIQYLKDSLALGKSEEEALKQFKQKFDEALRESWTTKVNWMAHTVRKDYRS
Chain of PI3K-beta (P27986 whole entry partner, species assumed): as the sequence (P27986 whole entry partner, species assumed) above
Chain of PI3K-delta (O00329 whole entry, species assumed): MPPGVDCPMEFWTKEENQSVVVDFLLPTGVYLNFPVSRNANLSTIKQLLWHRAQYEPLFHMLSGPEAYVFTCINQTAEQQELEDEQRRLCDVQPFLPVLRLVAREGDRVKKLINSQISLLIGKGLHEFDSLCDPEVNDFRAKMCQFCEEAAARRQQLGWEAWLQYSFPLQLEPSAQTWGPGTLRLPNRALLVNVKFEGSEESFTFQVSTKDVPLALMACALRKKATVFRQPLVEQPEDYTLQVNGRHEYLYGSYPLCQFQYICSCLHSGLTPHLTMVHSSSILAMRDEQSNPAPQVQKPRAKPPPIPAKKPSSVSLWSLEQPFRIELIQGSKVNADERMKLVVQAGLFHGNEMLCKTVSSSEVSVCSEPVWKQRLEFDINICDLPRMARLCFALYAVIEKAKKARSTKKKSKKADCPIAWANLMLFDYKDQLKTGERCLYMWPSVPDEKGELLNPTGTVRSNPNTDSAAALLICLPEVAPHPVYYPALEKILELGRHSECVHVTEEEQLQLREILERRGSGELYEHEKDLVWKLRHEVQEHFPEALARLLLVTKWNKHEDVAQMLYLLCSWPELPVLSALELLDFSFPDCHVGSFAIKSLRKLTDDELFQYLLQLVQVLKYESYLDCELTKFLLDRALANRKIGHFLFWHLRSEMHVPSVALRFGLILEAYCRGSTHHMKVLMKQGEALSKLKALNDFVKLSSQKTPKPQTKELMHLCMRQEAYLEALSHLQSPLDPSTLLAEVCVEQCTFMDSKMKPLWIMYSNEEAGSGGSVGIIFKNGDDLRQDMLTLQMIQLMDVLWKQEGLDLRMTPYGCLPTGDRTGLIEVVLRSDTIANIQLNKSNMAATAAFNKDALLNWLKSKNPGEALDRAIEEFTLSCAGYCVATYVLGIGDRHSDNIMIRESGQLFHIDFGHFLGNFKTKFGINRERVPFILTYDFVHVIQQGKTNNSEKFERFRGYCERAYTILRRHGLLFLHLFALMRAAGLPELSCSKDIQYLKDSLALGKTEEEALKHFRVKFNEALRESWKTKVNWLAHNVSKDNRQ
Chain of PI3K-delta (P27986 whole entry partner, species assumed): as the sequence (P27986 whole entry partner, species assumed) above

Turning to `COc1ccc2c(c1)c(C=C1Oc3cc(O)cc(O)c3C1=O)c(C)n2CCCN(C)C` [Example 106, 2-({1-[3-(dimethylamino)propyl]-5-methoxy-2-methyl-1H-indol-3-yl}methylene)-4,6-dihydroxy-1-benzofuran-3(2H)-one], the IC50 came out at 5.3 nM at PI3K-alpha; 17.5 nM at PI3K-beta; 404 nM against PI3K-gamma; 2 nM at PI3K-delta; 117 nM at human TOR.
As to `COc1ccc2c(c1)c(/C=C1\Oc3cc(O)ccc3C1=O)c(C1CC1)n2CCN1CCN(C)CC1` [Example 362, (2Z)-2-({2-Cyclopropyl-5-methoxy-1-[2-(4-methylpiperazin-1-yl)ethyl]-1H-indol-3-yl}methylene)-6-hydroxy-1-benzofuran-3(2H)-one], the IC50 at PI3K-alpha worked out at 10.5 nM; at PI3K-beta it was 8 nM; against PI3K-gamma, 329 nM; at PI3K-delta, 1.5 nM; on human TOR, 210 nM.
As for `COc1ccc2c(c1)c(C=C1Oc3cc(O)cc(O)c3C1=O)c(C)n2CCCN1CCC(N(C)C)C1` (stereo not shown) [Example 104, 2-[(1-{3-[3-(dimethylamino)pyrrolidin-1-yl]propyl}-5-methoxy-2-methyl-1H-indol-3-yl)methylene]-4,6-dihydroxy-1-benzofuran-3(2H)-one], the IC50 was determined as 5.7 nM at PI3K-alpha; 19 nM on PI3K-beta; 162 nM against PI3K-gamma; 2.3 nM at PI3K-delta; 130 nM on human TOR.
Consider `COc1ccc2c(c1)c(/C=C1\Oc3cc(O)ccc3C1=O)c(C)n2CCN1CCN(C)CC1` [Example 303, (2Z)-6-Hydroxy-2-({5-methoxy-2-methyl-1-[2-(4-methylpiperazin-1-yl)ethyl]-1H-indol-3-yl}methylene)-1-benzofuran-3(2H)-one], for which the IC50 on PI3K-alpha was 2.2 nM; at PI3K-beta it was 3.5 nM; on PI3K-gamma, 70 nM; on PI3K-delta, less than 2 nM; at human TOR, 1.93 nM.
As for `COc1ccc2c(c1)c(C=C1Oc3cc(O)cc(O)c3C1=O)c(C)n2CCCCN1CCC(N(C)C)C1` (stereo not shown) [Example 99, 2-[(1-{4-[3-(dimethylamino)pyrrolidin-1-yl]butyl}-5-methoxy-2-methyl-1H-indol-3-yl)methylene]-4,6-dihydroxy-1-benzofuran-3(2H)-one], the IC50 at PI3K-alpha is 8.3 nM; at PI3K-beta, 8 nM; against PI3K-gamma, 331 nM; at PI3K-delta, 2 nM; at human TOR it was 72.5 nM.
Regarding `COc1ccc2c(c1)c(/C=C1\Oc3cc(O)cc(O)c3C1=O)c(C1CC1)n2CCN1CCC(O)C1` (stereo not shown) [Example 342, (2Z)-2-({2-Cyclopropyl-1-[2-(3-hydroxypyrrolidin-1-yl)ethyl]-5-methoxy-1H-indol-3-yl}methylene)-4,6-dihydroxy-1-benzofuran-3(2H)-one], the IC50 on PI3K-alpha is 4.3 nM; on PI3K-beta it was 16.3 nM; at PI3K-gamma it was 32.5 nM; on PI3K-delta it was 1.5 nM; on human TOR it was 6.7 nM.
In the case of `COc1ccc2[nH]c(C(=O)N3CCN(C)CC3)c(/C=C3\Oc4cc(O)cc(O)c4C3=O)c2c1` [Example 331, (2Z)-4,6-Dihydroxy-2-({5-methoxy-2-[(4-methylpiperazin-1-yl)carbonyl]-1H-indol-3-yl}methylene)-1-benzofuran-3(2H)-one], the IC50 came to 4 nM at PI3K-alpha; 5.5 nM at PI3K-beta; 39.5 nM against PI3K-gamma; 6.5 nM at PI3K-delta; 49.5 nM on human TOR.
In the same order, the values of `COc1ccc2c(c1)c(C=C1Oc3cc(O)cc(O)c3C1=O)c(C)n2CCCN1CCOCC1` [Example 102, 4,6-dihydroxy-2-{[5-methoxy-2-methyl-1-(3-morpholin-4-ylpropyl)-1H-indol-3-yl]methylene}-1-benzofuran-3(2H)-one] are 8.5 nM, 45 nM, 75.5 nM, 1.9 nM and less than 25 nM.
